Laboratory results reported in patent US4402961A, “Derivatives of 1-(2-,3- or 4-quinolyl)-2- or -3-(2- or 3-piperidyl or -pyrrolidinyl) ethanone or propanone, and their utilization as antiarrhythmics, anticonvulsivants and for the treatment of anxiety” (Pharmindustrie, priority 1980, dated 1983).

tested on: ventricular arrhythmias caused by the aconitine; test: aconitine test on the rat (antiarrhythmic activity); format: in vivo; conditions: iv, read-out: ED50, dose which increases by 50% the time of perfusion of the aconitine versus control animals
Experimental: The principle of the method rests on the time of induction of the ventricular arrhythmias caused by the aconitine which is slowly perfused in rats. An antiarrhythmic substance retards the appearance of the arrhythmias and the delay is proportional to the activity of the molecule.
Groups of 5 male rats are used. An individual annesthesia is realized (10% urethane: 1 g/kg/ip) in order to permit a catheterization of the vein of the penis. The electrocardiogram is recorded. At time T=O the substance studied is injected in the form of an aqueous solution, at the rate of 2.5 ml of solution per kg in 30 seconds. At time T=90 seconds, say 1 minute after the end of the injection, the aconitine is perfused at the rate of 20 μg per minute, until the appearance of extra […] systoles. The time of perfusion of the aconitine is noted.
The results are expressed by ED50, which is the dose of product in mg/kg which increases by 50% the time of perfusion of the aconitine in comparison with the perfusion time of aconitine for the control animals.

`O=C(CC1CCCNC1)c1cc(-c2ccccc2)nc2ccccc12` (stereo not drawn) [Example 3, 1-[4-(2-phenyl)quinolyl]-2-(3-piperidyl)-ethanone] and `c1ccc(-c2cc(CCCC3CCCNC3)c3ccccc3n2)cc1` (stereo not drawn) [Example 14, 2-phenyl-4-[3-(3-piperidyl)-propyl]-quinoline] are within 1.5-fold of each other in ED50: 2.8 mg/kg for the first, 2.2 mg/kg for the second.

`COc1ccc2nccc(CCCC3CCCNC3)c2c1` (stereo not drawn) [Example 11, 6-methoxy-4-[3-(3-piperidyl)-propyl]-quinoline] gave an ED50 of 7.8 mg/kg.

target: Cerebral Binding Sites of the Benzodiazepines; test: not given; conditions: not given

First: COc1ccc2nccc(C(=O)CCC3CCCNC3)c2c1 (stereo not drawn) [Example 1, 1-[4-(6-methoxy)quinolyl]-3-(3-piperidyl)-1-propanone]
Second: COc1ccc2nccc(CCCC3CCCNC3)c2c1 (stereo not drawn) [Example 11, 6-methoxy-4-[3-(3-piperidyl)-propyl]-quinoline]
The Ki of the first is 2.8-fold lower: 2000 nM for the first, 5500 nM for the second. The first binds more tightly here.

First: O=C(CCC1CCCNC1)c1cc(-c2ccccc2)nc2ccccc12 (stereo not drawn) [Example 4, 1-[4-(2-phenyl)quinolyl]-3-(3-piperidyl)-1-propanone]
Second: c1ccc(-c2cc(CCC3CCCNC3)c3ccccc3n2)cc1 (stereo not drawn) [Example 13, 2-phenyl-4-[2-(3-piperidyl)-ethyl]-quinoline]
The Ki of the first is 8-fold higher: 800 nM for the first, 100 nM for the second.

`c1ccc(-c2cc(CCCC3CCCNC3)c3ccccc3n2)cc1` (stereo not drawn) [Example 14, 2-phenyl-4-[3-(3-piperidyl)-propyl]-quinoline] and `c1ccc(-c2cc(CCC3CCNC3)c3ccccc3n2)cc1` (stereo not drawn) [Example 29, 2-phenyl-4-[2-(3-pyrrolidinyl)-ethyl]-quinoline] are within 1.5-fold of each other in Ki: 1000 nM for the first, 700 nM for the second.

First: Clc1ccc(-c2cc(CCC3CCCNC3)c3ccccc3n2)cc1 (stereo not drawn) [Example 20, 2-(4-chloro-phenyl)-4-[2-(3-piperidyl)-ethyl]-quinoline]
Second: CN1CCCC(CCc2cc(-c3ccccc3)nc3ccccc23)C1 (stereo not drawn) [Example 23, 4-{2-[3-(1-methyl)piperidyl]-ethyl}-2-phenyl-quinoline]
The Ki of the first is 1.8-fold higher: 1600 nM for the first, 900 nM for the second. The second binds more tightly here.

Compared with `c1ccc(-c2cc(CCC3CCCCN3)c3ccccc3n2)cc1` (stereo not drawn) [Example 22, 2-phenyl-4-[2-(2-piperidyl)-ethyl]-quinoline], `c1ccc(-c2cc(CCCC3CCCCN3)c3ccccc3n2)cc1` (stereo not drawn) [Example 30, 4-[3-(2-piperidyl)-propyl]-2-phenyl-quinoline] is 4.5-fold higher in Ki: 600 nM for the first, 2700 nM for the second.

`CN1CCCC(CCCc2cc(-c3ccccc3)nc3ccccc23)C1` (stereo not drawn) [Example 24, 4-{3-[3-(1-methyl)piperidyl]-propyl}-2-phenyl-quinoline] gave a Ki of 3000 nM.

target: Cerebral Binding Sites of the Benzodiazepines; test: displacement of tritiated Diazepam (3H Diazepam) from cerebral benzodiazepine binding sites (method of Mohler and Coll.); conditions: read-out: KD, constant of affinity of 3H Diazepam; constant used in the Ki formula

`CN1C(=O)CN=C(c2ccccc2)c2cc(Cl)ccc21` [^3 H Diazepam] gave a Kd of 2740 nM.
